Among the data in a melting point compilation (Tetko et al.) are melting point values, retold here.

Usually melting point stands for the temperature, or range, at which the solid turns liquid.

For `N#Cc1ccc(N)c(C(F)(F)F)c1`, the melting point is 62 °C.
Under `N#CC=C(Cl)C#N` stands 60.5 °C; under `CCOC(=O)C1=C(C)NC(C)=C(C(=O)OCC)C1C`, 132 to 139 °C; under `O=Cc1cc(O)cc(O)c1`, 160 °C.
As for `Fc1ccccc1Cl`, the figure is -43 °C; as for `CSc1c(C#N)c(N)nc2c(/N=N/c3ccc(F)cc3)c(N)nn12`, 228 °C.
As for `COc1ccc2c(c1OC)C(=O)OC2C1c2c(cc3c(c2OC)OCO3)CCN1C` (configuration not stated), the figure is 176 °C; as for `Nc1ccc(CN2CCS(=O)(=O)CC2)cc1`, 156 °C.
As for `O=C(O)CNCC(=O)O`, the melting point stood at 248 °C.
In turn, `BrCC(CBr)(CBr)CBr` had a melting point of 163 °C.
Under `COc1cccc2cc(C(=O)Cc3c(C)cc(C)cc3C)oc12` stands 121 to 122 °C.
Turning to `Cc1ccc(-c2ccccc2)s1`, the melting point was found to be 47.5 °C.
Under `C=C1C(C)CCC2(C)C3=C(C(=O)C4(CC4C)C(O)C3=O)C(O)C(O)C12` (configuration not stated) stands 194 °C; under `CC(C)(C)c1ccc(S(=O)(=O)Cl)cc1`, 82 °C.
As for `COc1cc(N=C=S)c(C(c2ccc(C)o2)c2ccc(C)o2)cc1OC`, the figure is 91 °C; as for `CC(=O)Nc1ccccc1/C=C/c1cc(/C=C/c2ccccc2)c([N+](=O)[O-])cc1[N+](=O)[O-]`, 265 °C.
As for `[N-]=[N+]=Nc1ccc(Br)cc1`, the figure is 20 °C.
`Cc1nc(-c2ccc(C=O)cc2)cs1` came in with a melting point of 101 to 102 °C.
Consider `C1COCCNCCOCCOCCN1`, for which the melting point was 89 to 92 °C.
Under `CC(C)CC=O` stands -51 °C; under `CCCCCCCCCCCCC(C)O` (configuration not stated), 34 °C; under `CC1CCC2(OC1)OC1CC3C4CCC5CC(O)CCC5(C)C4CC(=O)C3(C)C1C2C` (configuration not stated), 266 °C.
As for `CCc1cc(C)cc(O)c1`, the figure is 51.6 °C; as for `CSc1nc(N)nc(C(C)(C)C)n1`, 102 to 104 °C; as for `CC(=O)C1CCC2(C)C(CCC3C4CCC(O)C4(C)CCC32)C1` (configuration not stated), 145 °C.
As for `N#CC(C=O)c1ccc(Cl)cc1` (configuration not stated), the figure is 157 °C.
On to `COc1c(Cl)cccc1[N+](=O)[O-]`, for which the melting point was determined as 58 °C.
As for `N#CSc1ccc(N)c(C(=O)O)c1`, the figure is 165 to 168 °C; as for `Cc1cc(O)c(C)cc1N`, 242 °C; as for `CCOC(=O)c1c2n(n(-c3ccc([N+](=O)[O-])cc3)c1=N)C(=O)CS2`, 145 to 148 °C.
As for `O=C(Oc1ccc2ccccc2c1)c1cccc(S(=O)(=O)Oc2ccc3ccccc3c2)c1`, the figure is 172 °C.
Turning to `O=[N+]([O-])C=Cc1c(Cl)cccc1Cl`, the melting point fell in the range of 62 to 66 °C.
As for `Clc1cc(-c2ccccc2)nc2ccccc12`, the figure is 62 to 64 °C; as for `CC(C)(C)OC(=O)N1CCC(C#N)CC1`, 47 °C; as for `CCCSC`, -113 °C.
As for `O=C(Nc1ccccc1)c1cccc2c(Br)cccc12`, the figure is 217 °C.
As for `c1cc2c3c(ccc4c3c1CCC4)CCC2`, the figure is 133 °C; as for `O=[N+]([O-])c1ccc2c(c1)OCO2`, 145 to 149 °C.
As for `NC(=O)NN=Cc1ccc([N+](=O)[O-])cc1`, the melting point turned out to be 217 °C.
As for `OCc1ccc(Oc2ccccc2)cc1`, the figure is 55 to 56 °C; as for `O=C(O)Cc1c(F)cccc1F`, 101 °C.
As for `O=C(Nc1ccccc1)c1cc2ccccc2cc1O`, the figure is 248 °C.
As for `O=[N+]([O-])c1cc(N(CCO)CCO)ccc1NCCO`, the figure is 95.5 °C.
`CN(C)c1ccc(/C=C(/C#N)c2nc3ccccc3c(=O)[nH]2)cc1`: the melting point lay within 308 to 309 °C.
Under `Nc1cccc(C(=O)O)c1C(=O)O` stands 170 to 180 °C; under `Nc1c(Br)cc([N+](=O)[O-])cc1Br`, 207 °C; under `CN1CCN(Cc2ccccc2CO)CC1`, 62 to 64 °C.
Under `NCc1cc(=O)[nH]o1` stands 175 °C; under `CCCC1C(=O)C2(C)CCC1C2(C)C` (configuration not stated), 128 °C.
Under `COc1ccc(C(=O)O)c(OC)c1` stands 109 °C; under `Nc1c(Br)cc(Br)cc1C(=O)c1ccccc1`, 98 °C.
Compound `O=C=Nc1cccc(-n2cccc2)c1` displayed a melting point of 46 to 47 °C.
Take `CCOC(=O)C1=C2c3ncccc3ON2C(Cl)C(Cl)C1Cl` (configuration not stated): the melting point stood at 105 °C.
`CC(C)CC(N)P(=O)(O)O` (configuration not stated) yielded a melting point of 274 to 280 °C.
Under `O=C1C(c2ccccc2)=C(c2ccccc2)c2ccccc21` stands 151 to 155 °C.
Turning to `CCCCSC(=Nc1cccnc1)SCc1ccc(C(C)(C)C)cc1`, the melting point came out at 32 °C.
Under `CCOC(=O)C(C)=P(c1ccccc1)(c1ccccc1)c1ccccc1` stands 157 to 159 °C.
Under `NNc1ccc(C(=O)O)cc1` stands 205 °C.
Regarding `Cc1ccccc1N1CCN(CCc2nnc3n2CCCC3)CC1`, the melting point stood at 158 °C.
Under `CC(Cc1oc2c(c3c(c4ccccc42)O[C@@H]2CC(=O)O[C@H]32)c(=O)c1[Si](C)(C)C)O[Si](C)(C)C(C)(C)C` (some centres not stated) stands 188 to 190 °C; under `COC(=O)c1cc(Br)ccc1NC(C)=O`, 134 °C.
The compound `CCCc1c(NCC)ccc(C(C)=O)c1O` came in with a melting point of 45 to 48 °C.
As for `N#Cc1c(F)c(F)c(C#N)c(F)c1F`, the figure is 198 °C; as for `CC(NC(=O)C(F)(F)C(F)(F)C(F)(F)C(F)(F)C(F)(F)C(F)(F)C(F)(F)C(F)(F)F)c1ccccc1` (configuration not stated), 100 °C; as for `CC(C)C(OC(=O)c1cccnc1)c1ccc(Cl)cc1` (configuration not stated), 61 °C.
As to `c1ccc(Sc2ccc3ccccc3n2)cc1`, the melting point amounted to 48 °C.
As for `O=Cc1coc2ccc(Cl)cc2c1=O`, the figure is 162 to 168 °C; as for `COC(=O)c1ccccc1S(=O)(=O)Cl`, 62 to 63 °C; as for `COc1ccc(C2CC(c3ccc4ccccc4c3)=NN2C(N)=O)cc1` (configuration not stated), 173 to 175 °C.
Take `COc1ccc2c(c1)OC(c1ccccc1)CC2=O` (configuration not stated): the melting point is 88 °C.
As for `O=c1c2ccccc2nc2n1CCc1c-2[nH]c2ccccc12`, the figure is 260 °C; as for `CC1=NN(c2ccc([N+](=O)[O-])cc2)C(=O)C1`, 220 to 225 °C.
As for `CC(COc1ccccc1)NC(C)C(O)c1ccc(O)cc1` (configuration not stated), the figure is 102 °C; as for `Cc1cc(O)c(C(C)(C)C)cc1C(C)CC(c1cc(C(C)(C)C)c(O)cc1C)c1cc(C(C)(C)C)c(O)cc1C` (configuration not stated), 186 °C; as for `N#CC(=CNc1ccccc1)c1ccccc1`, 156 °C.
As to `O=Cc1ccc(C=O)c([N+](=O)[O-])c1`, the melting point was 97 °C.
In turn, `C1CCN(C2CCNCC2)C1` yielded a melting point of 52 to 57 °C.
As for `O=C(O)c1ccc(-n2ccc(C(F)(F)F)n2)cc1`, the melting point lay in the range of 189 to 190 °C.
Under `CC(C)CCCC(C)CCCC(C)CCCCC(C)CCCC(C)CCCC(C)C` (configuration not stated) stands -38 °C.
As for `COC(=O)c1sc2scc(C)c2c1C`, the figure is 136 to 139 °C; as for `C=CCC1(C2C=CCCC2)C(=O)NC(=S)NC1=O` (configuration not stated), 148 °C.
As for `c1ccc(CN2CCCNCCN(Cc3ccccc3)CCCNCC2)cc1`, the figure is 68 °C; as for `O=[N+]([O-])c1ccc2nc(C(Cl)(Cl)Cl)[nH]c2c1`, 210 to 212 °C; as for `CCCCCCCCCCCC(=O)Cl`, -17 °C.
As to `Cc1cc(N)ccc1I`, the melting point is 50 to 55 °C.
Under `CCCCOc1ccc(CC(=O)NO)cc1` stands 153 °C.
As for `CC(C)(C)C1CCCC1`, the melting point was -96 °C.
As for `Cc1nc(C)c(C=O)s1`, the figure is 30 °C.
Under `COC(=O)CC1Sc2ccccc2NC1=O` (configuration not stated) stands 143 °C; under `C[Si](C)(C)C=C[Si](C)(C)C`, -18.5 °C; under `C1CCC2(CC1)OCC(C1OC3(CCCCC3)OC1C1COC3(CCCCC3)O1)O2` (configuration not stated), 82 to 84 °C.
Under `C/C(=N/NC(N)=S)C(=O)Nc1ccccc1` stands 211 to 213 °C.
Consider `C=CC(=O)N1CCOCC1`, for which the melting point is -8 °C.
Compound `O=C(O)C1(Cl)CC2C=CC1C2` (configuration not stated) displayed a melting point of 139 to 141 °C.
As for `CNC(=O)ON=C(CSC)C(C)(C)C`, the figure is 57 °C; as for `CC(=O)Cc1c[nH]c2ccccc12`, 116 °C.
On to `Brc1sc(Br)c2c1OCCO2`, for which the melting point came out at 98 °C.
As for `CN(C)C(=O)[C@@H]1OC(C)(C)O[C@H]1C(=O)N(C)C`, the figure is 88 to 91 °C; as for `CCCCCCCCCCCCCCCCCCCCCC(=O)OC`, 54 °C.
Under `O=C1OC2(Cc3ccccc31)Cc1ccccc12` (configuration not stated) stands 88 °C.
As for `COc1ccc(C2NCCc3sccc32)cc1` (configuration not stated), the figure is 69 to 71 °C; as for `Cn1ccccc1=O`, 31 °C.
In the case of `CCCCCCC=CCC(=O)O`, the melting point was 18 °C.
Under `O=C(O)Cc1ccc(O)c(F)c1` stands 132 to 134 °C; under `N#CC1C(=S)NC2(C(=O)Nc3ccccc32)C2=C1CCC2` (configuration not stated), 311 °C; under `CN=C1SC(CC(=O)O)C(=O)N1C` (configuration not stated), 157 to 159 °C.
Under `O=C(C=Cc1ccccc1O)c1cccc(C(=O)C=Cc2ccccc2O)c1` stands 150 °C.
`CC(C)C(c1ccccc1)C(C)C`: the melting point is -24.5 °C.
As for `Clc1cccc2cc3c(Cl)cccc3cc12`, the figure is 189 °C; as for `OCC1CCNCC1`, 59 °C.
As for `Nc1ccc([N+](=O)[O-])c(C(=O)O)c1`, the figure is 234 to 242 °C.
Under `CC(C)c1ccccc1C(C)C` stands -57 °C.
